Among the data in ChEMBL document CHEMBL1909046, “DrugMatrix in vitro pharmacology data” are IC50 and Ki values, retold here.

Assay [1] has as its target 5-hydroxytryptamine receptor 6 (Homo sapiens, UniProt P50406). It counts as cell membranes, HeLa, Membrane. Note: in other assays of this panel Not Active means under 50% inhibition at 10 µM.
Assay [2] has as its target Sodium-dependent dopamine transporter (Homo sapiens, UniProt Q01959). Description: DRUGMATRIX: Dopamine Transporter radioligand binding (ligand: [125I] RTI-55). Type of assay: cell membranes, CHO-K1, Membrane. Conditions: Not Active = under 50% inhibition at 10 µM.
Assay [3] can be described thus: DRUGMATRIX: Phosphodiesterase PDE3 enzyme inhibition (substrate: [3H]cAMP + cAMP). Type of assay: tissue-based, Homo sapiens. Particulars: platelet; Not Active = under 50% inhibition at 10 µM.
The target in a further assay is T1, Neutrophil elastase (Homo sapiens, UniProt P08246).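 Note: inhibition of neutrophil elastase enzyme activity, measured with a p-nitroanilide-linked peptide substrate; in other assays of this panel Not Active means under 50% inhibition at 10 µM.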
T1 sequence (P08246 whole entry): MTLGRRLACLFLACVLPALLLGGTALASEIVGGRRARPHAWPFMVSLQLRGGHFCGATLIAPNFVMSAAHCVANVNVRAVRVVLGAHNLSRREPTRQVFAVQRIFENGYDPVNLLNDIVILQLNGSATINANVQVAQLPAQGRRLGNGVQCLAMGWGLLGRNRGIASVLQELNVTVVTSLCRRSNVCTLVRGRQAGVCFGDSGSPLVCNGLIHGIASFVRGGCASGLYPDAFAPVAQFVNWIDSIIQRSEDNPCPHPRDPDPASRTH
It counts as tissue-based.

Assay [4] in a line: DRUGMATRIX: Imidazoline I2, Central radioligand binding (ligand: [3H] Idazoxan). Particulars: Not Active = under 50% inhibition at 10 µM. Type of assay: cell membranes, Rattus norvegicus, Wistar, Cerebral cortex, Membrane.
The next assay addresses T2, Caspase-1 (Homo sapiens, UniProt P29466).
T2 sequence (P29466 whole entry): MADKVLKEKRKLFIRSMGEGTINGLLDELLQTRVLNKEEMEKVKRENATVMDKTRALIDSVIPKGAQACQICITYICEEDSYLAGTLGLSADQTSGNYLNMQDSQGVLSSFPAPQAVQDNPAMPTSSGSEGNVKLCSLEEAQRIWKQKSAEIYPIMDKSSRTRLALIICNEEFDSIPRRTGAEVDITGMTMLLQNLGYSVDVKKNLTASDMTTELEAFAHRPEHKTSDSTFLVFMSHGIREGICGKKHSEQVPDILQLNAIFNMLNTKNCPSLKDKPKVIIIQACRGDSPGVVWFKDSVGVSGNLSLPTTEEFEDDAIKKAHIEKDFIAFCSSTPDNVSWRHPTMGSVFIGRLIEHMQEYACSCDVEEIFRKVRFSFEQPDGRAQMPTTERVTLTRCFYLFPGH
Also noted: species or system Escherichia coli.

5-hydroxytryptamine receptor 6, sequence (P50406 whole entry): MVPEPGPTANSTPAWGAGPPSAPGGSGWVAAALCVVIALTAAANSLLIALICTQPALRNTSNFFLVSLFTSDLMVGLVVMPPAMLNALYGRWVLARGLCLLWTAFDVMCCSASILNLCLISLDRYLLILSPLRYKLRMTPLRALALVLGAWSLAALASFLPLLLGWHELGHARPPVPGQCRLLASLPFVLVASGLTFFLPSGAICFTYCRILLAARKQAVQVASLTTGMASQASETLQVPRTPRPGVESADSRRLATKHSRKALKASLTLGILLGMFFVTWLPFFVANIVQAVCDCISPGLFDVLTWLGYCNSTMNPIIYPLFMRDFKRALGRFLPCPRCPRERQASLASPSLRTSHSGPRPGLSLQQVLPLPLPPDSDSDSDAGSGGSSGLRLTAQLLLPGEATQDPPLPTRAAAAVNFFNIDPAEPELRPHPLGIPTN
Sodium-dependent dopamine transporter, sequence (Q01959 whole entry): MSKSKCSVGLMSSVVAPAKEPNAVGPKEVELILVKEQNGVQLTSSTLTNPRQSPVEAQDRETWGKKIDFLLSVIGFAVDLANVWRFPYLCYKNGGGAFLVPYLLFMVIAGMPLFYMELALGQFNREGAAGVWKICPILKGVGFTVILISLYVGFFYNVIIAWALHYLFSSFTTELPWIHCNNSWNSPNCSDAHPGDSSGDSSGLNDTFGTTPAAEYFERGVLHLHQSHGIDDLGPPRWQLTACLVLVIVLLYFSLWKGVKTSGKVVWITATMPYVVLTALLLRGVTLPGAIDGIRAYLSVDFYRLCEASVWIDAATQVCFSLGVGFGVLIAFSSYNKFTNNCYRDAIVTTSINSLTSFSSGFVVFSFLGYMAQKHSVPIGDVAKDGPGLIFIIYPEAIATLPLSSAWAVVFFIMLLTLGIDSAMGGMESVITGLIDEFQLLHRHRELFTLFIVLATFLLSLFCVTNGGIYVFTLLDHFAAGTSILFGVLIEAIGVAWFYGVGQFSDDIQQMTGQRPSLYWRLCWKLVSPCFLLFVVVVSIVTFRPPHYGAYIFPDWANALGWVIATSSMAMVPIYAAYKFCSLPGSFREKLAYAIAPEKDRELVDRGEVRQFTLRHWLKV

Consider `ClC(Cl)(Cl)Cl` [CARBON TETRACHLORIDE], for which the IC50 result (in assay [1] (hela); in assay [2] (cho-k1); in assay [3]; against Neutrophil elastase; in assay [4]; at Caspase-1) was “Not Active” in each case. Moreover, the Ki entry in assay [3] and in assay [4] was “Not Active” in each case.

As for `CO/N=C(\C(=O)N[C@@H]1C(=O)N2C(C(=O)O)=C(COC(C)=O)CS[C@H]12)c1csc(N)n1` [CEFOTAXIME], the IC50 result (in assay [1] (hela); in assay [2] (cho-k1); in assay [3]; against Neutrophil elastase; in assay [4]; at Caspase-1) was “Not Active” throughout. Besides, the Ki entry in assay [3] and in assay [4] was “Not Active” throughout.

As for `CNC1=Nc2ccc(Cl)cc2C(c2ccccc2)=[N+]([O-])C1` [CHLORDIAZEPOXIDE], the IC50 result (in assay [1] (hela); in assay [2] (cho-k1); in assay [3]; against Neutrophil elastase; in assay [4]; at Caspase-1) was “Not Active” each time. The Ki entry in assay [3] and in assay [4] was “Not Active” in each case.

In the case of `Cc1cc(O)cc(C)c1Cl` [CHLOROXYLENOL], the IC50 result (in assay [1] (hela); in assay [2] (cho-k1); in assay [3]; against Neutrophil elastase; in assay [4]; on Caspase-1) was “Not Active” in each case. Moreover, the Ki result in assay [3] and in assay [4] was “Not Active” in each case.

`CCCNC(=O)NS(=O)(=O)c1ccc(Cl)cc1` [CHLORPROPAMIDE]: the IC50 entry (in assay [1] (hela); in assay [2] (cho-k1); in assay [3]; at Neutrophil elastase; in assay [4]; against Caspase-1) was “Not Active” each time. Also, the Ki entry in assay [3] and in assay [4] was “Not Active” in each case.

For the molecule `NS(=O)(=O)c1cc(C2(O)NC(=O)c3ccccc32)ccc1Cl` (stereo unspecified) [CHLORTHALIDONE], the IC50 result (in assay [1] (hela); in assay [2] (cho-k1); in assay [3]; against Neutrophil elastase; in assay [4]; on Caspase-1) was “Not Active” throughout. For the same molecule, the Ki result in assay [3] and in assay [4] was “Not Active” each time.

Turning to `O=C(O)CC(O)(CC(=O)O)C(=O)O` [CITRIC ACID], the IC50 entry (in assay [1] (hela); in assay [2] (cho-k1); in assay [3]; on Neutrophil elastase; in assay [4]; against Caspase-1) was “Not Active” throughout. In addition, the Ki entry in assay [3] and in assay [4] was “Not Active” throughout.

Take `CC(C)NCC(O)c1ccccc1Cl` (stereo unspecified) [CLORPRENALINE]: the IC50 entry (in assay [1] (hela); in assay [2] (cho-k1); in assay [3]; on Neutrophil elastase; in assay [4]; at Caspase-1) was “Not Active” each time. For the same molecule, the Ki entry in assay [3] and in assay [4] was “Not Active” each time.

Turning to `CN1CCN(C(c2ccccc2)c2ccccc2)CC1` [CYCLIZINE], the IC50 (in general, the midpoint of a concentration-inhibition curve) was “Not Active” in assay [1] (hela); 0.763 µM in assay [2] (read-out: IC50); “Not Active” in assay [3]; “Not Active” at Neutrophil elastase; 3.13 µM in assay [4] (read-out: IC50); “Not Active” against Caspase-1. In addition, the Ki (as a rule, the dissociation constant of the complex between target and ligand, obtained from inhibition or displacement) was 0.606 µM in assay [2] (read-out: Ki), “Not Active” in assay [3] and 2.09 µM in assay [4] (read-out: Ki).

For `CN1C[C@@H]2C[C@H]1CN2c1cc2c(cc1F)c(=O)c(C(=O)O)cn2C1CC1` [DANOFLOXACIN], the IC50 result (in assay [1] (hela); in assay [2] (cho-k1); in assay [3]; at Neutrophil elastase; in assay [4]; at Caspase-1) was “Not Active” each time. The Ki entry in assay [3] and in assay [4] was “Not Active” throughout.

Consider `COc1cccc2c1C(=O)c1c(O)c3c(c(O)c1C2=O)C[C@@](O)(C(C)=O)C[C@@H]3O[C@H]1C[C@H](N)[C@H](O)[C@H](C)O1` [DAUNORUBICIN], for which the IC50 result (in assay [1] (hela); in assay [2] (cho-k1); in assay [3]; against Neutrophil elastase; in assay [4]; at Caspase-1) was “Not Active” throughout. The Ki result in assay [3] and in assay [4] was “Not Active” in each case.

For `O=C(O)c1cc(-c2ccc(F)cc2F)ccc1O` [DIFLUNISAL], the IC50 entry (in assay [1] (hela); in assay [2] (cho-k1); in assay [3]; on Neutrophil elastase; in assay [4]; on Caspase-1) was “Not Active” throughout. The Ki result in assay [3] and in assay [4] was “Not Active” each time.

Turning to `C[S+](C)[O-]` [DIMETHYL SULFOXIDE], the IC50 result (in assay [1] (hela); in assay [2] (cho-k1); in assay [3]; against Neutrophil elastase; in assay [4]; against Caspase-1) was “Not Active” in each case. Further, the Ki result in assay [3] and in assay [4] was “Not Active” in each case.

Take `CC1=NN(c2ccccc2)C(=O)C1` [EDARAVONE]: the IC50 result (in assay [1] (hela); in assay [2] (cho-k1); in assay [3]; on Neutrophil elastase; in assay [4]; at Caspase-1) was “Not Active” in each case. Further, the Ki result in assay [3] and in assay [4] was “Not Active” in each case.

Take `CC(C)C[C@H]1C(=O)N2CCC[C@H]2[C@]2(O)O[C@](NC(=O)[C@@H]3C=C4c5cccc6[nH]cc(c56)C[C@H]4N(C)C3)(C(C)C)C(=O)N12` [ERGOCRYPTINE]: the IC50 was 0.016 µM in assay [1] (read-out: IC50); “Not Active” in assay [2] (cho-k1); “Not Active” in assay [3]; “Not Active” on Neutrophil elastase; 0.00328 µM in assay [4] (read-out: IC50); “Not Active” against Caspase-1. For the same molecule, the Ki was 0.00756 µM in assay [1] (read-out: Ki), “Not Active” in assay [3] and 0.00219 µM in assay [4] (read-out: Ki).

Consider `C[C@]12CC[C@@H]3c4ccc(O)cc4CC[C@H]3[C@@H]1C[C@@H](O)[C@@H]2O` [ESTRIOL], for which the IC50 entry (in assay [1] (hela); in assay [2] (cho-k1); in assay [3]; against Neutrophil elastase; in assay [4]; on Caspase-1) was “Not Active” each time. Moreover, the Ki entry in assay [3] and in assay [4] was “Not Active” in each case.

Consider `C#C[C@]1(O)CC[C@H]2[C@@H]3CCC4=CC(=O)CC[C@]4(C)[C@H]3CC[C@@]21C` [ETHISTERONE], for which the IC50 entry (in assay [1] (hela); in assay [2] (cho-k1); in assay [3]; against Neutrophil elastase; in assay [4]; on Caspase-1) was “Not Active” throughout. The Ki result in assay [3] and in assay [4] was “Not Active” each time.

`CC(O)(P(=O)(O)O)P(=O)(O)O` [ETIDRONIC ACID]: the IC50 entry (in assay [1] (hela); in assay [2] (cho-k1); in assay [3]; at Neutrophil elastase; in assay [4]; on Caspase-1) was “Not Active” each time. Also, the Ki entry in assay [3] and in assay [4] was “Not Active” throughout.
